# Data taken from patent US20250346582A1, “SPLEEN TYROSINE KINASE INHIBITORS AND METHODS OF USE THEREOF” (THE BOARD OF TRUSTEES OF THE UNIVERSITY OF ILLINOIS, priority 2022, published 2025).
# Key:
# [1] = tested on: BCR signaling axis (Syk-BLNK-PLCγ2); assay: Western blot of BCR signaling axis in Raji B lymphocytes; assay type: cell-based; conditions: Raji B cells
# Procedure: Cells were seeded at a density of 3.0×10^5 cells/well prior to incubation with inhibitors. Cells were incubated with 1-5 μM of Syk inhibitors overnight and stimulated with different antibodies: IgG2 for AML cells, IgM for Raji B cells, and OKT3 (Biolegend) for Jurkat cells. The cells were lysed in NP40 lysis buffer (50 mM Tris, pH 7.5, 150 mM NaCl, 1 mM EDTA, 1% NP40, 10% glycerol, 10 mM NaF, 10 mM Na3VO4, and the protease inhibitor cocktail) at 4° C. and the cell debris was removed by centrifugation. Samples were analyzed by SDS-PAGE. Proteins were separated and transferred to Immobilon-P polyvinylidene difluoride membrane (Millipore Sigma). The membrane was blocked with 5% bovine serum albumin for 1 h and incubated overnight at 4° C. with various antibodies (1:1000 dilution for all antibodies). After the unbound antibodies were removed by washing with 0.1% Tris buffer saline with 0.1% Tween20, the membranes were incubated with the horseradish peroxidase secondary antibody (1:5000 dilution) for 1 h at room temperature. The membranes were washed three more times with 0.1% Tris buffer saline with 0.1% Tween20 to remove the unbound horseradish peroxidase secondary antibody before imaging. The chemiluminescence intensity of protein bands in the gel was analyzed and documented by the Azure 500Q Imaging System.
# MV4-11 cells [2] = assay: XTT cell proliferation assay, MV4-11 cells; assay type: cell-based
# Procedure: (§1) MV4-11 or HL-60 cells were seeded into a clear-bottom 96-well plate containing varying concentrations of inhibitors in the optimal growth media described above and the mixtures were incubated for 16 h. Cells were then treated with a mixture of XTT-labeling reagents and the electron coupling reagents according to the manufacturer's protocol (Roche). After 4 h, the absorbance values at 475 nm and at 660 nm were simultaneously measured by Synergy™ Neo spectrofluorometer at 25° C. Cells with the growth media was used for background correction.
# [3] = tested on: entospletinib-resistant MV4-11 cells; assay: XTT cell proliferation assay, entospletinib-resistant MV4-11 cells; assay type: cell-based; conditions: Homo sapiens, read-out: IC50, inhibition of proliferation (XTT assay)
# Procedure: (§2) Then the concentration was maintained at 5 μM.
# as §1
# MV4-11 cells [4] = assay: Generation of drug-resistant MV4-11 cells under chronic treatment; assay type: cell-based; conditions: inhibitor increased from 0.5 to 5 μM over 10 weeks
# Procedure: as §2
# [5] = molecular target: T1, scaffolding function of Syk (Homo sapiens, UniProt P43405); assay: Co-immunoprecipitation with Syk, entospletinib-resistant MV4-11 cells; assay type: cell-based; conditions: 5 μM
# T1 construct: host or cells: MV4-11 AML cells (naive and entospletinib-resistant)
# Procedure: (§3) MV-4-11 cells were collected by centrifugation, washed twice with phosphate phosphate-buffered saline (PBS) and resuspended in the immunoprecipitation (IP) buffer (50 mM HEPES, pH 7.4, 150 mM NaCl, 1 mM MgCl2, 1 mM EGTA, and 0.25 mM GTP) with 0.2-0.5% Triton X-100 and a protease inhibitor mix (Sigma-Aldrich). Lysates were prepared after 5 min of incubation on ice by repeated pipetting and centrifugation for 10 min at 12,000 g and at 4° C. For immunoprecipitation, the SYK-specific antibody was immobilized onto 100 μl Dynabeads/protein A (ThermoFisher) and the excess antibody was washed away by placing the tube in a DynaMag magnet and removing the supernatant. The resuspended beads were then incubated with the cell extract supernatant containing 500 μg of proteins for 1 h at 4° C. The immunoprecipitates were rinsed three times with the IP buffer and eluted with 30 μl of the sample buffer containing sodium dodecyl sulfate (SDS). For detection of proteins in total extracts (i.e., Input), 30 μg of the sample was loaded in each gel lane for western blot analysis.
# [6] = molecular target: T1, scaffolding function of Syk; assay: Co-immunoprecipitation with Syk, naïve MV4-11 cells; assay type: cell-based; conditions: 5 μM
# Procedure: as §3
# Syk-cSH2 E164D = molecular target: T2, Syk-cSH2 E164D (Homo sapiens, UniProt P43405, E164D); assay: Fluorescence quenching vesicle binding assay, Syk-cSH2 E164D mutant; conditions: up to 5 μM; POPC/POPS/PIP3/dabsyl-PE vesicles
# T2 construct: polyhistidine (N); made in house; host or cells: Escherichia coli BL21 (DE3) pLysS
# Procedure: (§4) The membrane-binding assay is based on fluorescence quenching of EGFP fused to a SH2 domain by a dark quencher containing lipid, dabsyl-PE, incorporated in lipid vesicles. The plate reader assay was performed using the Synergy™ Neo spectrofluorometer at 25° C. Nontreated black polystyrene 96-well plates (Corning) were used. Protein (10-50 nM) with the increasing concentration of vesicles with a given lipid composition in 20 mM Tris buffer, pH 7.4, containing 0.16 M NaCl was added to each row of wells and the EGFP fluorescence emission at 516 nm was measured with excitation set at 485 nm. Z′ factor for the assay system was determined as described^74. Imax and IC50 values of inhibitors were determined using the equation, I=Imax/(1+IC50/[I]) where I and [I] indicate % inhibition and inhibitor concentration, respectively. The average and standard deviation values were obtained from triplicate determinations.
# Syk-cSH2 E164Q = molecular target: T3, Syk-cSH2 E164Q (Homo sapiens, UniProt P43405, E164Q); assay: Fluorescence quenching vesicle binding assay, Syk-cSH2 E164Q mutant; conditions: POPC/POPS/PIP3/dabsyl-PE vesicles
# T3 construct: polyhistidine (N); made in house; host or cells: Escherichia coli BL21 (DE3) pLysS
# Procedure: as §4
# Syk WT, E164D and E164Q [7] = molecular target: T4, Syk WT, E164D and E164Q (Homo sapiens, UniProt P43405); assay: Phosphorylation in Syk-deficient MV4-11 cells re-expressing Syk WT or E164 mutants; assay type: cell-based; conditions: Syk WT added back to Syk-deficient AML cells; 5 μM overnight
# T4 construct: When the full-length E164D and E164Q, respectively, were introduced into Syk-deficient MV4-11 cells; expressed in transfected cells; host or cells: entospletinib-resistant MV4-11 cells with shRNA knockdown of endogenous Syk
# Procedure: (§5) FIGS. 5A-5B show cellular target validation of WC36. (a) Inhibition of Syk WT and WC36-binding site mutants by WC36. Entospletinib-resistant MV4-11 cells were treated with shRNA to suppress the expression of endogenous Syk and then transfected with exogenous Syk-WT and four Syk-[…] genes, respectively. These constructs harbor silent mutations to avoid gene suppression by Syk ShRNA. Phosphorylation of Syk and ERK1/2 in these cells was then monitored before and after treatment with 5 μM WC36 overnight. […] (b) Western blot analysis of WC36B-binding proteins captured by pull-down by streptavidin beads. Biotin was used as a negative control. GAPDH was used as a gel loading control.
# (§6) Cells were seeded at a density of 3.0×10^5 cells/well prior to incubation with inhibitors. Cells were incubated with 1-5 μM of Syk inhibitors overnight and stimulated with different antibodies: IgG2 for AML cells, IgM for Raji B cells, and OKT3 (Biolegend) for Jurkat cells. The cells were lysed in NP40 lysis buffer (50 mM Tris, pH 7.5, 150 mM NaCl, 1 mM EDTA, 1% NP40, 10% glycerol, 10 mM NaF, 10 mM Na3VO4, and the protease inhibitor cocktail) at 4° C. and the cell debris was removed by centrifugation. Samples were analyzed by SDS-PAGE. […] The chemiluminescence intensity of protein bands in the gel was analyzed and documented by the Azure 500Q Imaging System.
# Syk WT, E164D and E164Q [8] = assay: as above; assay type: cell-based, human; conditions: Syk-deficient MV4-11 cells with full-length E164D or E164Q; 5 μM overnight
# Procedure: as §5, §6
smiles,measurement,setting,value
"[N-]=[N+]=C(C(=O)OC1CCCCC1)C(Nc1ncccn1)c1ccco1 (racemic) [WC35, Cyclohexyl 2-diazo-3-(furan-2-yl)-3-(pyrimidin-2-ylamino)propanoate]","effect on phosphorylation of BCR signaling proteins (Syk, BLNK, PLCγ2)",[1],effectively suppressed phosphorylation of all BCR signaling proteins
same,inhibition of cell proliferation (XTT assay),MV4-11 cells [2],modestly more active than WC38 and entospletinib
"[N-]=[N+]=C(C(=O)OC1CCCCC1)C(Nc1ncccn1)c1c[nH]c2ccccc12 (racemic) [WC36, Cyclohexyl 2-diazo-3-(1H-indol-3-yl)-3-(pyrimidin-2-ylamino)propanoate]","effect on phosphorylation of BCR signaling proteins (Syk, BLNK, PLCγ2)",[1],effectively suppressed phosphorylation of all BCR signaling proteins
same,inhibition of cell proliferation (XTT assay),MV4-11 cells [2],modestly more active than WC38 and entospletinib
same,IC50,[3],500 ± 10 nM
same,development of acquired resistance,MV4-11 cells [4],could not develop resistance to WC36
same,suppression of co-precipitation with Syk,[5],greatly suppressed co-precipitation
same,suppression of the scaffolding function of Syk (co-precipitation),[6],greatly suppressed the scaffolding function of Syk
same,inhibition of membrane binding of Syk-cSH2 E164D,Syk-cSH2 E164D,not inhibited
same,inhibition of membrane binding of Syk-cSH2 E164Q,Syk-cSH2 E164Q,refractory to WC36 inhibition
same,inhibition of phosphorylation of Syk WT and ERK1/2,"Syk WT, E164D and E164Q [7]",potently suppressed phosphorylation of Syk WT and ERK1/2
same,inhibition of phosphorylation of Syk E164D/E164Q and ERK1/2,"Syk WT, E164D and E164Q [8]",did not inhibit phosphorylation of these mutants and ERK1/2
"[N-]=[N+]=C(C(=O)OC1CCCCC1)C(Nc1ncccn1)c1ccc[nH]1 (racemic) [WC38, Cyclohexyl 2-diazo-3-(pyrimidin-2-ylamino)-3-(1H-pyrrol-2-yl)propanoate]","effect on phosphorylation of BCR signaling proteins (Syk, BLNK, PLCγ2)",[1],effectively suppressed phosphorylation of all BCR signaling proteins
